From patent publication US20070238700A1, “N-PHENYL-1,1,1-TRIFLUOROMETHANESULFONAMIDE HYDRAZONE DERIVATIVE COMPOUNDS AND THEIR USAGE IN CONTROLLING PARASITES” (priority 2006, published 2007)
Where two headings read alike, the source gives them in different places.

Experiments:
Ctenocephalides felis [1] = test system: Ctenocephalides felis
In short: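 Adult cat fleas (3–7 days post-emergence), 15 per flask in ≥4 replicates, exposed to a dried acetone residue at 1.26 μg/cm^2 on a Coatasil-treated glass flask base. Held at 25±1° C, 75±5% humidity; mortality (immobile or unable to right) scored at 8, 24 and/or 48 h.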

Ctenocephalides felis [2] = experiment: Ctenocephalides felis adulticide assay: C. felis dose response (LC50)
Text: c) Ctenocephalides felis Adulticide Assay: C. felis Dose Response
The purpose of this example was to determine the LC50 when cat fleas were contacted with a glass surface treated with sample compounds or formulations prepared as described above. […] The test species was the cat flea (Ctenocephalides felis). The strain used was obtained from external suppliers as pupae and held in the laboratory under testing conditions until the adults had emerged. Fifteen (15) fleas were used in a minimum of four replicates for each dose level (total of 60 fleas per dose level). The insects were selected to be in the adult life stage, aged between 3 and 7 days post emergence.
The compounds to be tested were dissolved in acetone just prior to testing. Samples of compounds were stored in a refrigerator (5±1° C.) unless otherwise specified. During the mortality testing, the temperature was maintained at 25±1° C. Humidity was maintained at 75±5%. The base (area=159 mm^2) of a 100 mL glass Erlenmeyer (conical) flask provided the treatment surface. Flasks were pretreated with Coatasil™ glass treatment to maximise bio-availability of test compounds by preventing them from binding to the glass surface.
The base of the 100 mL Erlenmeyer flask was treated with 0.5 mL of test sample in acetone and gently swirled. This volume was sufficient to cover the base of the flask. Flasks were left to dry for 24 hours before flea exposure. Adult cat fleas were lightly anaesthetised by cooling and then placed into a sorting chamber, which allowed fleas to revive and jump into the Erlenmeyer flasks. Fifteen (15) adult cat fleas were collected in each flask. The top of the flasks were then covered in Parafilm™ and small holes made to allow gas exchange. A 0.5 mL volume of acetone was applied to the base of an Erlenmeyer flask and the testing proceeded in the same manner described above. Cat fleas in the treatment containers were held under testing conditions for 24 hours. Mortality resulting from the treatments was recorded at 8 and 24 hours.

Rhipicephalus sanguineus [3] = experiment: Rapid screening protocol for topical application on brown dog ticks (% mortality); design: concentration or dose not given beside the values
In short: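 Mixed-sex unfed adult ticks each received 1 μL test sample in acetone on the abdomen at a single screening dose chosen above the reference LD90 (fipronil 10 μg/tick), with acetone-only controls; 4 replicates of 10 ticks. Held 24 h at 25±1 °C; ticks unresponsive to light touch over 1 min scored dead, pooled as % mortality.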

Rhipicephalus sanguineus [4] = experiment: Dose response protocol for topical application on brown dog ticks (LD50); conditions: 24 h mortality, probit analysis
Protocol: e) Dose response protocol for topical application on brown dog ticks (Rhipicephalus sanguineus): The test determines the level of insecticidal activity of sample compounds or formulations when applied topically on brown dog ticks. Sample compounds were stored prior to use in a freezer (−5±1° C.), unless otherwise specified.
• Mortality: A tick is defined as dead after it gives no apparent response when touched lightly or gently breathed upon, while observed for 30 seconds. • LD50 (Lethal Dose 50): The dose of a topically applied treatment at which 50% of the dog ticks are killed. • Reference compound: To assess an experimental compound for significant acaricidal activity a single dose level is chosen, which is based upon known results from previous experiments using a commercially available active i.e., a reference compound. The reference compound selected is one in common use, and one that has a similar mode of action against the Brown Dog Tick (i.e., the test species), • Recovery container: A recovery container consists of a 500 ml round plastic container measuring 115 mm diameter and 70 mm height, with a tight fitting lid that has 10 small (˜1 mm) holes inserted for air exchange. A 90 mm diameter piece of filter paper was placed on the bottom of the container and moistened with 1 mL of distilled water.
Adult, mixed sex, Brown Dog Ticks (Rhipicephalus sanguineus) were reared as follows: (i) cultured, (ii) transferred unfed, to a testing laboratory, and (iii) then maintained under controlled conditions (i.e., temp. 18°±2° C., humidity 75±5% RH). The ticks used were selected for vigor prior to testing, i.e., capable of actively walking and responsive to being touched or gently breathed upon.
During the testing, the temperature was maintained at 25±1° C. and the humidity was ambient. Seven dose levels (concentrations) of sample compound, in the form of serial dilutions in acetone, were derived from a pilot study and covered a range that produced very low to very high mortality. Groups of ten ticks were treated topically (on the abdomen) with 1 μL of a single dose level of the sample compound. Each test was replicated four times, i.e., employing a total of 40 ticks per dose level of each sample compound. As a control, ten ticks were treated with solvent only (acetone) for each test. Following the treatment, the ticks were held in recovery containers maintained under appropriate rearing conditions for 24 hours. Mortality resulting from the treatments was recorded at 24 hours. […] Press, London (1971).]

Row | SMILES | C. felis Mortality (%) 8 h (Ctenocephalides felis [1]) | C. felis Mortality (%) 24 h (Ctenocephalides felis [1]) | C. felis LC50 (Ctenocephalides felis [2]) | R. sanguineus Mortality (%) 24 h (Rhipicephalus sanguineus [3]; data from laboratory 2) | R. sanguineus LD50 (Rhipicephalus sanguineus [4]) | C. felis Mortality (%) 48 h (Ctenocephalides felis [1]) | C. felis Mortality (%) 24 h (Ctenocephalides felis [1]; 24 h, data from laboratory 1) | C. felis Mortality (%) 48 h (Ctenocephalides felis [1]; 48 h, data from laboratory 1) | C. felis LC50 (Ctenocephalides felis [2]; data from laboratory 1) | R. sanguineus Mortality (%) 24 h (Rhipicephalus sanguineus [3]; data from laboratory 1)
1 | CC(=NN(C)c1ccc(Cl)cc1)c1cc(Cl)ccc1NS(=O)(=O)C(F)(F)F [Compound 105] | 42% | 100% | 3.0 ppm | 95% | 1.4 μg/tick | – | – | – | – | –
2 | CCN(N=C(C)c1cc(Cl)ccc1NS(=O)(=O)C(F)(F)F)c1cc(Cl)cc(Cl)c1 [Compound 70] | 95% | 100% | 1.8 ppm | 100% | 4.1 μg/tick | – | – | – | – | –
3 | CCC(=NN1CCCCC1)c1cc(Cl)ccc1NS(=O)(=O)C(F)(F)F [Compound 129] | 27% | 98% | 2.82 ppm | 98% | 0.52 μg/tick | – | – | – | – | –
4 | CCCN(N=C(C)c1cc(Cl)ccc1NS(=O)(=O)C(F)(F)F)c1ccc(C(F)(F)F)cc1 [Compound 41] | – | 94% | 0.44 ppm | 100% | 3.8 μg/tick | 100% | – | – | – | –
5 | CCCN(N=C(C)c1cc(Cl)ccc1NS(=O)(=O)C(F)(F)F)c1ccc(C)cc1 [Compound 73] | 96% | 100% | 2.1 ppm | 88% | 5.3 μg/tick | – | – | – | – | –
6 | CCN(N=C(C)c1cc(Cl)ccc1NS(=O)(=O)C(F)(F)F)c1cccc(Cl)c1 [Compound 38] | – | 100% | 2.5 ppm | 98% | 3.6 μg/tick | 100% | – | – | – | –
7 | CC(=NN(C)c1cc(Cl)cc(Cl)c1)c1cc(Cl)ccc1NS(=O)(=O)C(F)(F)F [Compound 99] | 57% | 100% | 1.9 ppm | 95% | 3.1 μg/tick | – | – | – | – | –
8 | CCCCCC(=O)N(CCC#N)/N=C(\C)c1cc(Cl)ccc1NS(=O)(=O)C(F)(F)F [Compound 224] | 3% | 100% | 3.54 ppm | 100% | 0.71 μg/tick | – | – | – | – | –
9 | CCCN(N=C(C)c1cc(Cl)ccc1NS(=O)(=O)C(F)(F)F)c1ccc(Cl)cc1 [Compound 27] | – | 100% | 0.23 ppm | 95% | 5.5 μg/tick | 100% | – | – | – | –
10 | CC(=O)N(CCC#N)/N=C(\C)c1cc(Cl)ccc1NS(=O)(=O)C(F)(F)F [Compound 221] | 15% | 100% | 2.2 ppm | 90% | 0.53 μg/tick | – | – | – | – | –
11 | CC(=NN1CCCC1)c1cc(Cl)ccc1NS(=O)(=O)C(F)(F)F [Compound 116] | 98% | 100% | 2.66 ppm | 93% | 0.74 μg/tick | – | – | – | – | –
12 | CCN(N=C(C)c1cc(Cl)ccc1NS(=O)(=O)C(F)(F)F)c1ccccc1 [Compound 34] | – | – | – | 100% | 3.6 μg/tick | – | 100% | 100% | 0.97 ppm | –
13 | CC(=NN1CCOC1=O)c1cc(Cl)ccc1NS(=O)(=O)C(F)(F)F [Compound 23] | 100% | 100% | 2.0 ppm | – | 0.99 μg/tick | – | – | – | – | 95^A %
14 | CCN(N=C(C)c1cc(Cl)ccc1NS(=O)(=O)C(F)(F)F)c1ccc(Br)cc1 [Compound 54] | 95% | 100% | 1.6 ppm | 95% | 5.6 μg/tick | – | – | – | – | –
15 | CCC(=NN(C)C(=O)c1ccc(Cl)cc1)c1cc(Cl)ccc1NS(=O)(=O)C(F)(F)F [Compound 81] | 100% | 100% | 2.2 ppm | 100% | 1.49 μg/tick | – | – | – | – | –
16 | CC(=NN(C)c1ccccc1F)c1cc(Cl)ccc1NS(=O)(=O)C(F)(F)F [Compound 49] | 100% | 100% | – | 100% | 1.6 μg/tick | – | – | – | 0.31 ppm | –
17 | CCN(N=C(C)c1cc(Cl)ccc1NS(=O)(=O)C(F)(F)F)c1ccc(Cl)cc1 [Compound 26] | – | 100% | 0.12 ppm | 97% | 5.4 μg/tick | 100% | – | – | – | –
18 | CCOC(=O)N(CC)N=C(C)c1cc(Cl)ccc1NS(=O)(=O)C(F)(F)F [Compound 125] | 82% | 100% | 3.62 ppm | 95% | 0.64 μg/tick | – | – | – | – | –
19 | C/C(=N\N(C)C1CCCCC1)c1cc(Cl)ccc1NS(=O)(=O)C(F)(F)F [Compound 215] | 8% | 100% | 2.54 ppm | 73% | 1.29 μg/tick | – | – | – | – | –
20 | CCN(N=C(C)c1cc(Cl)ccc1NS(=O)(=O)C(F)(F)F)c1cccc(F)c1 [Compound 76] | 100% | 100% | 0.42 ppm | 98% | 2.1 μg/tick | – | – | – | – | –
21 | CC(=NN(C)C(=O)c1ccc(Cl)cc1)c1cc(Cl)ccc1NS(=O)(=O)C(F)(F)F [Compound 59] | 100% | 100% | 2.9 ppm | 100% | 1.8 μg/tick | – | – | – | – | –
22 | CC(=NN(C)c1cccc(Cl)c1Cl)c1cc(Cl)ccc1NS(=O)(=O)C(F)(F)F [Compound 100] | 55% | 100% | 1.7 ppm | 70% | 4.0 μg/tick | – | – | – | – | –
23 | CC(=NN(C)c1cccc(Cl)c1)c1cc(Cl)ccc1NS(=O)(=O)C(F)(F)F [Compound 51] | 100% | 100% | 0.82 ppm | 100% | 2.6 μg/tick | – | – | – | – | –
24 | CCC(=NN(CC)C(=O)OC)c1cc(Cl)ccc1NS(=O)(=O)C(F)(F)F [Compound 140] | 89% | 100% | 3.70 ppm | 100% | 0.28 μg/tick | – | – | – | – | –
